{"source": "patent US11571411B2", "about": "“Use of a bisamide derivative of malonic acid for treating allergic and other diseases in humans and animals” (PHARMENTERPRISES ALLERGY LLC, priority 2018, dated 2023)", "key": {"[1]": {"molecular_target": "T1, human histamine receptor type 3 (Homo sapiens, UniProt Q9Y5N1)", "T1 construct": "expressed in transfected cells; host or cells: CHO cells", "T1 sequence (Q9Y5N1 whole entry)": "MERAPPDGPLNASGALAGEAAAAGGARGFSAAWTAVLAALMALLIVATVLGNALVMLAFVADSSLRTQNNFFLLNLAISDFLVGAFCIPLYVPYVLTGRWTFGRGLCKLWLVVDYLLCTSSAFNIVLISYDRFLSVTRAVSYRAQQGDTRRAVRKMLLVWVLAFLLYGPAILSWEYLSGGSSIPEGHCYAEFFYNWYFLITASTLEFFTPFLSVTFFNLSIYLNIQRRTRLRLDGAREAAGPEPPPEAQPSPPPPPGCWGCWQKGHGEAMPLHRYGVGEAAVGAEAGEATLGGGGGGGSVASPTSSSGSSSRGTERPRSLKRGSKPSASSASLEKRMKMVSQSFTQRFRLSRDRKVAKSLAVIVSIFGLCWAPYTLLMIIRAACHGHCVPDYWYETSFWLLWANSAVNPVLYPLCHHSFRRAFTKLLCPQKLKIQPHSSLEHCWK", "assay": "Binding of radiolabeled ligand [3H]Nα-methylhistamine to histamine receptor type 3", "conditions": "CHO cells, [3H]Nα-methylhistamine (1 nM)"}, "[2]": {"tested_on": "ovalbumin-induced allergic rhinitis model", "assay": "Ovalbumin-induced allergic rhinitis model in guinea pigs, nasal administration of 1% solution", "format": "in vivo, guinea pig", "conditions": "for Number of eosinophils per 1 μL of lavage fluid / Number of nose scratchings / Number of sneezes: 1% solution once intranasally", "experimental": "Int Immunopharmacol. 2013. V.17(1). P.18-25]. Guinea pigs (250-300 g) were immunized with 4× (on days 0, 7, 14 and 21) intraperitoneal administration of a mixture of ovalbumin (100 μg/pig) and aluminum hydroxide (5 mg/pig), diluted and suspended in saline. On day 28 of the study, an ovalbumin solution (60 mg/ml) was injected intranasally to the animals, 20 μl into each nostril. On day 35, after shaving the skin on the back, the animals were injected intradermally with an ovalbumin solution (200 μg/ml, 25 μl). […] On day 42 of the study, an ovalbumin solution (60 mg/ml, 20 μl/nostril) was administered intranasally. A group of sham-immunized animals was formed in order to control the formation of allergic inflammation: the pigs received an aluminum hydroxide solution (5 mg/pig) on days 0, 7, 14 and 21, a saline solution on days 28 and 35, and an ovalbumin solution (60 mg/ml, 20 μl/nostril) on day 42.\nA 1% solution of Compound I was administered to the animals intranasally once 1 hour or 3 hours before intranasal administration of ovalbumin in a volume of 10 μl/nostril. Clinical manifestations of rhinitis were assessed within 2 hours after the last administration of ovalbumin: the numbers of sneezes and nose scratchings were counted. In addition, eosinophils were counted in the nasal lavage fluid."}, "[3]": {"molecular_target": "T1, human histamine receptor type 3", "assay": "Effect on activity of histamine receptor type 3 (intracellular cAMP, CHO cells)", "format": "cell-based", "conditions": "preincubation with histamine, read-out: IC50, antagonist of histamine receptor type 3"}, "[4]": {"tested_on": "ovalbumin-induced allergic rhinitis model", "assay": "Ovalbumin-induced allergic rhinitis model in guinea pigs, oral administration", "format": "in vivo, guinea pig", "conditions": "intragastrically; for Number of nose scratchings / Number of sneezes: within 2 hours after ovalbumin", "experimental": "Int Immunopharmacol. 2013. V.17(1). P.18-25]. Guinea pigs (250-300 g) were immunized with 4× (on days 0, 7, 14 and 21) intraperitoneal administration of a mixture of ovalbumin (100 μg/pig) and aluminum hydroxide (5 mg/pig), diluted and suspended in saline. On day 28 of the study, an ovalbumin solution (60 mg/ml) was injected intranasally to the animals, 20 μl into each nostril. On day 35, after shaving the skin on the back, the animals were intradermally injected with an ovalbumin solution (200 μg/ml, 25 μl). […] On day 42 of the study, an ovalbumin solution (60 mg/ml, 20 μl/nostril) was administered intranasally. A group of sham-immunized animals was formed in order to control the formation of allergic inflammation: the pigs received an aluminum hydroxide solution (5 mg/pig) on days 0, 7, 14 and 21, a saline solution on days 28 and 35, and an ovalbumin solution (60 mg/ml, 20 μl/nostril) on day 42. Table 1 presents data on clinical manifestations of pathology and the number of eosinophils in the lavage fluid in guinea pigs on the allergic rhinitis experimental model after oral administration (M±m, n=10)\nCompound I was administered to animals intragastrically 48, and 1 hour before intranasal administration of ovalbumin. Clinical manifestations of rhinitis were assessed within 2 hours after the last administration of ovalbumin: the numbers of sneezes and nose scratchings were counted. In addition, eosinophils were counted in the nasal lavage fluid."}, "[5]": {"molecular_target": "T2, human histamine receptor type 4 (Homo sapiens, UniProt Q9H3N8)", "T2 construct": "expressed in transfected cells; host or cells: HEK-293 cells", "T2 sequence (Q9H3N8 whole entry)": "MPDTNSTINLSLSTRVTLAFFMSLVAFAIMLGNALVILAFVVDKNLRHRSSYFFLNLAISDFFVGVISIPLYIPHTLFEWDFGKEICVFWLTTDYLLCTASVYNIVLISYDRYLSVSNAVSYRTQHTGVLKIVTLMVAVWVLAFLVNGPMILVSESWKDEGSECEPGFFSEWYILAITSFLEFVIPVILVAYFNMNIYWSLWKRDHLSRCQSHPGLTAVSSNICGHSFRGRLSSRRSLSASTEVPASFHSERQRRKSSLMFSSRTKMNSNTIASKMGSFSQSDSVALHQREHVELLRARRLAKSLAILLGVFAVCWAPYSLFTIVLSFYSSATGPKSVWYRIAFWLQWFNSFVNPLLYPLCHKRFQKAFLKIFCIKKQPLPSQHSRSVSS", "assay": "Binding of radiolabeled ligand [3H] histamine to histamine receptor type 4", "conditions": "HEK-293 cells, [3H] histamine (10 nM)"}, "[6]": {"tested_on": "histamine-induced nasal congestion model", "assay": "Histamine-induced nasal congestion model in guinea pigs, nasal administration of 1% solution", "format": "in vivo, guinea pig", "conditions": "for Resistance in nasal passages, AUC: 1% solution once intranasally, AUC 0-15 minutes", "experimental": "A histamine-induced nasal congestion model in guinea pigs was performed according to the standard procedure [Slack R J1, Russell L J, Hall D A, Luttmann M A, Ford A J, Saunders K A, Hodgson S T, Connor H E, Browning C, Clark K L. Pharmacological characterization of GSK1004723, a novel, long-acting antagonist at histamine H(1) and H(3) receptors//Br J Pharmacol. 2011. V.164(6). P.1627-1641]. Guinea pigs were anesthetized, the trachea was isolated, and a cannula was inserted through it into the nasopharynx. The cannula was connected to a blood pressure sensor and artificial respirator (Ugo Basile). A 0.2% solution of histamine was inhaled for 3 minutes. The resistance to air flow in the nasal passages was assessed within 15 minutes after the end of inhalation of the histamine solution. Compound I was administered to guinea pigs once intranasally in the form of a 1% solution (10 μl/nostril) 1 hour and 4 hours before the inhalation of histamine."}, "[7]": {"tested_on": "histamine-induced nasal congestion model", "assay": "Histamine-induced nasal congestion model in dogs, nasal administration of 1% solution", "format": "in vivo, Beagle dogs", "conditions": "1% solution intranasally", "experimental": "A histamine-induced nasal congestion model in dogs was performed according to the standard procedure [Tiniakov R. L., Tiniakova O. P., McLeod R. L., Hey J. A., Yeates D. B. Canine model of nasal congestion and allergic rhinitis//J Appl Physiol. 2003. V.94(5). P.1821-1828]. Beagle dogs were injected to the nasal cavity with a 5% histamine solution in a volume of 250 μl/nostril. The volume of the nasal cavity of the right and left nostrils was measured using a rhinometer before and 5, 10, 15, 20, 30, 40, 50 and 60 minutes after administration of histamine. Five experiments were carried out in which Compound I was administered intranasally once in the form of a 1% solution in a volume of 50 μl at different time periods: 1) 5 minutes after the administration of histamine; 2) right before administration of histamine; 3) 3 hours before administration of histamine; 4) […] administration of histamine; and 5) 8 hours before administration of histamine."}, "[8]": {"conditions": "1 hour before the last administration of ovalbumin"}, "[9]": {"conditions": "3 hours before the last administration of ovalbumin"}}}
{"smiles": "O=C(CC(=O)NCCc1cnc[nH]1)NCCc1cnc[nH]1", "note": "[Compound I, N,N′-bis(2-(1H-imidazol-5-yl)ethyl)malonamide]", "values": [{"measurement": "Ki", "setting": "[1]", "value": 2.7, "unit": "µM"}, {"measurement": "duration of the therapeutic effect", "setting": "[2]; 1% solution intranasally, guinea pigs, allergic rhinitis", "value": "at least 3 hours"}, {"measurement": "Number of eosinophils per 1 μL of lavage fluid", "setting": "[2]; [8]", "value": "1416.9 ± 126.8*#& per 1 μL"}, {"measurement": "Number of nose scratchings", "setting": "[2]; [8]", "value": "14.5 ± 4.4&"}, {"measurement": "Number of sneezes", "setting": "[2]; [8]", "value": "3.1 ± 1.2#&"}, {"measurement": "Number of eosinophils per 1 μL of lavage fluid", "setting": "[2]; [9]", "value": "1490.1 ± 241.0*#& per 1 μL"}, {"measurement": "Number of nose scratchings", "setting": "[2]; [9]", "value": "10.7 ± 2.1#&"}, {"measurement": "Number of sneezes", "setting": "[2]; [9]", "value": "3.9 ± 1.5&"}, {"measurement": "IC50", "setting": "[3]", "value": 20, "unit": "µM"}, {"measurement": "Number of eosinophils per 1 μL of lavage fluid", "setting": "[4]; 0.014 mg/kg", "value": "1300.5 ± 93.8*#& per 1 μL"}, {"measurement": "Number of nose scratchings", "setting": "[4]; 0.014 mg/kg", "value": "16.1 ± 2*#&"}, {"measurement": "Number of sneezes", "setting": "[4]; 0.014 mg/kg", "value": "11.6 ± 1.4*#&"}, {"measurement": "Number of eosinophils per 1 μL of lavage fluid", "setting": "[4]; 0.042 mg/kg", "value": "1219.6 ± 159.4*#& per 1 μL"}, {"measurement": "Number of nose scratchings", "setting": "[4]; 0.042 mg/kg", "value": "16.2 ± 2.7*&"}, {"measurement": "Number of sneezes", "setting": "[4]; 0.042 mg/kg", "value": "10.5 ± 1.2*#&"}, {"measurement": "Number of eosinophils per 1 μL of lavage fluid", "setting": "[4]; 0.14 mg/kg", "value": "1141.5 ± 128.5*#& per 1 μL"}, {"measurement": "Number of nose scratchings", "setting": "[4]; 0.14 mg/kg", "value": "13.3 ± 1.3*&"}, {"measurement": "Number of sneezes", "setting": "[4]; 0.14 mg/kg", "value": "8.3 ± 0.9*#&"}, {"measurement": "Number of eosinophils per 1 μL of lavage fluid", "setting": "[4]; 0.42 mg/kg", "value": "1069.0 ± 139.4*#& per 1 μL"}, {"measurement": "Number of nose scratchings", "setting": "[4]; 0.42 mg/kg", "value": "16.2 ± 2.0*#&"}, {"measurement": "Number of sneezes", "setting": "[4]; 0.42 mg/kg", "value": "5.2 ± 0.6*&"}, {"measurement": "Number of eosinophils per 1 μL of lavage fluid", "setting": "[4]; 1.4 mg/kg", "value": "984.1 ± 111.0*#& per 1 μL"}, {"measurement": "Number of nose scratchings", "setting": "[4]; 1.4 mg/kg", "value": "14.4 ± 3.3*&"}, {"measurement": "Number of sneezes", "setting": "[4]; 1.4 mg/kg", "value": "6.9 ± 0.8*#&"}, {"measurement": "Ki", "setting": "[5]", "value": 16, "unit": "µM"}, {"measurement": "duration of the therapeutic effect", "setting": "[6]; 1% solution intranasally, guinea pigs, histamine-induced nasal congestion", "value": "at least 4 hours"}, {"measurement": "Resistance in nasal passages, AUC", "setting": "[6]; 1 hour before histamine inhalation", "value": "317.95 ± 24.49*& see H2O×c"}, {"measurement": "Resistance in nasal passages, AUC", "setting": "[6]; 3 hours before histamine inhalation", "value": "281.75 ± 52.44*& see H2O×c"}, {"measurement": "duration of the therapeutic effect", "setting": "[7]", "value": "at least 8 hours"}, {"measurement": "onset time of the therapeutic effect", "setting": "[7]", "value": "no more than 5 minutes"}]}
